Source: patent US8841310B2, “Combinations of a pyrimidine containing NNRTI with RT inhibitors” (Janssen R & D Ireland, priority 2003, dated 2014)
Read-outs that look alike come from different tables or passages of the source.

What was measured:
[1] = system: HIV-1 double resistant mutant K103N+Y181C; assay: Development of resistance in vitro, starting from double mutant; format: cell-based
Text: (§1) Emerging virus was collected for pheno- and genotyping. Cultures without evidence of virus replication were further sub-cultivated in the presence of the same concentration of inhibitor for a total duration of 30 days (10 passages).

[2] = system: wild type HIV-1; assay: Development of resistance in vitro, MT4 cells, high multiplicity of infection; format: cell-based; settings: wild type HIV-1, >1 infectious virus per cell, all tested concentrations, total 30 days
Text: as §1

[3] = Phase I single oral dose trials: safety, tolerability, pharmacokinetics; format: in vivo, human; settings: for Cmax / half-life / Tmax: human, plasma; for half-life / Tmax: male
Procedure: Oral doses of 12.5, 25, and 50 mg were formulated in PEG 400 and taken with a standard meal.
There was a time interval of about 14 days between each dosing session

[4] = system: HIV-1 double mutant 103N + 181I; assay: MT-4 cell-based antiviral assay, SDM mutant; settings: Human immunodeficiency virus 1, MT4, 96 h
Procedure: (§2) Compound E-TMC278 was tested in a cell-based assay, using natural host cells of HIV. MT-4 cells (a cell line of human T cells) were infected with HIV-1 (wild type or mutants) and exposed to different concentrations of antiviral compound in the presence of 10% fetal calf serum. Cytotoxicity was determined in parallel with the antiviral activity so that the selectivity of the antiviral effect could be assessed. Active compounds have to penetrate the cell membrane in order to interfere with replication steps inside the cell.
(§3) After four days of incubation at 37° C., the viability of the HIV and mock-infected cells was assessed by an automated tetrazolium-based calorimetric assay. This method enabled the calculation of both the 50% inhibitory concentration for inhibition of viral cytopathicity (IC50), the IC90, and the 50% cytotoxic concentration (CC50). The ratio CC50/IC50, also called the selectivity index, is an indication of the specificity of the antiviral effect. Tested HIV strains included: Wild type (wt) HIV-1; a panel of single and double mutants, obtained by site-directed mutagenesis (SDM), and a panel of clinical isolates, selected for resistance against NNRTIs.
(§4) A limited panel of HIV-1 mutants was constructed using site-directed mutagenesis (SDM) and homologous recombination techniques. […] Nevirapine (NVP) and efavirenz (EFV) were included as controls.

[5] = system: HIV-1 mutant 101E; assay: MT-4 cell-based antiviral assay, SDM mutant; settings: Human immunodeficiency virus 1, MT4
Procedure: as §2, §3, §4

[6] = system: HIV-1 double mutant 101E + 103N; assay: MT-4 cell-based antiviral assay, SDM mutant; settings: Human immunodeficiency virus 1, MT4, 96 h
Procedure: as §2, §3, §4

[7] = system: HIV-1 double mutant 103N + 181C; assay: MT-4 cell-based antiviral assay, SDM mutant
Procedure: as §2, §3, §4

[8] = system: HIV-1 mutant 227C; assay: MT-4 cell-based antiviral assay, SDM mutant
Procedure: as §2, §3, §4

[9] = system: HIV-1 mutant 108I; assay: MT-4 cell-based antiviral assay, SDM mutant; settings: Human immunodeficiency virus 1, MT4
Procedure: as §2, §3, §4

[10] = system: HIV-1 mutant 227L; assay: MT-4 cell-based antiviral assay, SDM mutant; settings: Human immunodeficiency virus 1, MT4
Procedure: as §2, §3, §4

[11] = system: HIV-1 double mutant 100I + 103N; assay: MT-4 cell-based antiviral assay, SDM mutant
Procedure: as §2, §3, §4

[12] = system: HIV-1 mutant 225H; assay: MT-4 cell-based antiviral assay, SDM mutant; settings: Human immunodeficiency virus 1, MT4
Procedure: as §2, §3, §4

[13] = system: HIV-1 mutant 188L; assay: MT-4 cell-based antiviral assay, SDM mutant
Procedure: as §2, §3, §4

[14] = system: HIV-1 mutant 188H; assay: MT-4 cell-based antiviral assay, SDM mutant; settings: Human immunodeficiency virus 1, MT4
Procedure: as §2, §3, §4

[15] = system: HIV-1 mutant 179D; assay: MT-4 cell-based antiviral assay, SDM mutant; settings: Human immunodeficiency virus 1, MT4
Procedure: as §2, §3, §4

[16] = system: HIV-1 double mutant 227L + 106A; assay: MT-4 cell-based antiviral assay, SDM mutant
Procedure: as §2, §3, §4

[17] = system: HIV-1 mutant 234I; assay: MT-4 cell-based antiviral assay, SDM mutant; settings: Human immunodeficiency virus 1, MT4
Procedure: as §2, §3, §4

[18] = system: HIV-1 mutant 190S; assay: MT-4 cell-based antiviral assay, SDM mutant; settings: Human immunodeficiency virus 1, MT4
Procedure: as §2, §3, §4

[19] = system: HIV-1 mutant 181C; assay: MT-4 cell-based antiviral assay, SDM mutant
Procedure: as §2, §3, §4

[20] = system: HIV-1 mutant 188C; assay: MT-4 cell-based antiviral assay, SDM mutant; settings: Human immunodeficiency virus 1, MT4
Procedure: as §2, §3, §4

[21] = system: HIV-1 mutant 103N; assay: MT-4 cell-based antiviral assay, SDM mutant
Procedure: as §2, §3, §4

[22] = system: HIV-1 mutant 190A; assay: MT-4 cell-based antiviral assay, SDM mutant; settings: Human immunodeficiency virus 1, MT4
Procedure: as §2, §3, §4

[23] = system: HIV-1 mutant 106A; assay: MT-4 cell-based antiviral assay, SDM mutant; settings: Human immunodeficiency virus 1, MT4
Procedure: as §2, §3, §4

[24] = system: HIV-1 mutant 236L; assay: MT-4 cell-based antiviral assay, SDM mutant; settings: Human immunodeficiency virus 1, MT4
Procedure: as §2, §3, §4

[25] = system: HIV-1 single mutant Y181C; assay: Development of resistance in vitro, starting from single mutant; format: cell-based
Text: as §1

[26] = system: HIV-1 single mutant 103N; assay: as above; format: cell-based; settings: starting from 103N
Text: as §1

[27] = Cardiovascular and pulmonary safety in vivo; settings: plasma levels covering and exceeding the targeted plasma levels in man
[28] = Cardiovascular and pulmonary safety in vitro; settings: concentrations covering or exceeding the anti-viral concentration in vitro
[29] = single oral doses, healthy volunteers
[30] = Human immunodeficiency virus 1, MT4
[31] = Human immunodeficiency virus 1, MT4, read-out: IC50 value

Cc1cc(/C=C/C#N)cc(C)c1Nc1ccnc(Nc2ccc(C#N)cc2)n1 [E-TMC278, (E)-4-[[4-[[4-(2-cyanoethenyl)-2,6-dimethylphenyl]-amino]-2-pyrimidinyl]-amino]-benzonitrile]
emergence of resistance [1]: resistance did emerge at all tested concentrations
time to emergence of resistant virus [2]: > 30 days
correlation coefficient for AUC0-48 hr (dose proportionality) ([3]; 12.5-200 mg): 0.9952
correlation coefficient for the 5 Cmax datapoints (dose proportionality) ([3]; 12.5-200 mg): 0.9897
Cmax ([3]; single oral dose 25 mg in PEG 400 with standard meal, healthy male volunteers): 149 ± 32 ng/mL
Cmax ([3]; single oral dose 50 mg in PEG 400 with standard meal, healthy male volunteers): 267 ± 27 ng/mL
Cmax ([3]; single oral dose 100 mg, healthy male subjects): 482 ± 121 ng/mL
Cmax ([3]; single oral dose 200 mg, healthy male subjects): 807 ± 207 ng/mL
half-life ([3]; across single oral doses, read-out: Half-life of plasma concentrations): 37 to 39 h
Tmax ([3]; single oral dose 12.5 mg): 4 h
half-life ([3]; single oral dose 12.5 mg, read-out: T1/2 (converted)): 37.1 h
Tmax ([3]; single oral dose 25 mg): 4 ± 1.3 h
half-life ([3]; single oral dose 25 mg, read-out: T1/2 (converted)): 38.7 h
Tmax ([3]; single oral dose 50 mg): 4 ± 1.3 h
half-life ([3]; single oral dose 50 mg, read-out: T1/2 (converted)): 45 ± 9 h
Tmax ([3]; single oral dose 100 mg): 4.3 ± 0.8 h
half-life ([3]; single oral dose 100 mg, read-out: T1/2 (converted)): 55 ± 18 h
Tmax ([3]; single oral dose 200 mg): 4.3 ± 0.8 h
Adverse effects [3, 29]: No relevant adverse effects
Tolerability [3, 29]: well tolerated
IC50 [4]: 1 nM
IC50 [5]: 1.6 nM
IC50 [6]: 0.5 nM
IC50 [7, 30]: 0.8 nM
IC50 [7, 31]: 1 nM
IC50 [8, 30]: 2 nM
IC50 [8, 31]: 2 nM
IC50 [9]: 0.3 nM
IC50 [10]: 0.3 nM
IC90 [11, 30]: ~16 nM
IC50 ([11]; Human immunodeficiency virus 1, MT4, 96 h, 100I + 103N, MT-4 cells): ~8 nM
IC50 ([11]; Human immunodeficiency virus 1, MT4, read-out: IC50 value, Table 1, HIV RT mutation: 100I + 103N): 7.9 nM
IC50 [12]: 0.3 nM
IC50 [13, 30]: 2 nM
IC50 [13, 31]: 2 nM
IC50 [14]: 0.2 nM
IC50 [15]: 0.6 nM
IC50 ([16]; Human immunodeficiency virus 1, MT4, 96 h): 1 nM
IC50 [16, 31]: 1 nM
IC50 [17]: 0.3 nM
IC50 [18]: 0.1 nM
IC50 [19, 30]: 1.3 nM
IC50 [19, 31]: 1.3 nM
IC50 [20]: 0.1 nM
IC50 [21, 30]: 0.3 nM
IC50 [21, 31]: 0.3 nM
IC50 [22]: 0.3 nM
IC50 [23]: 0.2 nM
IC50 [24]: 0.3 nM
virus breakthrough ([25]; at 10 nM): did occur
virus breakthrough ([25]; at 40 and 200 nM): did not occur
virus breakthrough ([26]; at 10 nM): did occur
virus breakthrough ([26]; at 40 and 200 nM): did not occur
effect on cardiovascular and pulmonary parameters in vivo [27]: little or no effect
effect on cardiovascular and pulmonary parameters in vitro [28]: little or no effect
